According to article PMC4352033, “SD-208, a Novel Protein Kinase D Inhibitor, Blocks Prostate Cancer Cell Proliferation and Tumor Growth In Vivo by Inducing G2/M Cell Cycle Arrest” (PLoS ONE, 2015):

Assays:
Assay type in all cases: biochemical
PKCδ = molecular target: T1, PKCδ (Homo sapiens, UniProt Q05655); test: in vitro radiometric PKC kinase assay
T1 construct: gene PRKCD; recombinant PKCδ

PKCα = molecular target: T2, PKCα (Homo sapiens, UniProt P17252)
T2 construct: gene PRKCA; recombinant PKCα

PKD2 = molecular target: T3, PKD2 (Homo sapiens, UniProt Q9BZL6); test: in vitro radiometric kinase assay, 10-point curve
T3 construct: gene PRKD2; recombinant human PKD2
T3 sequence (Q9BZL6 1-878): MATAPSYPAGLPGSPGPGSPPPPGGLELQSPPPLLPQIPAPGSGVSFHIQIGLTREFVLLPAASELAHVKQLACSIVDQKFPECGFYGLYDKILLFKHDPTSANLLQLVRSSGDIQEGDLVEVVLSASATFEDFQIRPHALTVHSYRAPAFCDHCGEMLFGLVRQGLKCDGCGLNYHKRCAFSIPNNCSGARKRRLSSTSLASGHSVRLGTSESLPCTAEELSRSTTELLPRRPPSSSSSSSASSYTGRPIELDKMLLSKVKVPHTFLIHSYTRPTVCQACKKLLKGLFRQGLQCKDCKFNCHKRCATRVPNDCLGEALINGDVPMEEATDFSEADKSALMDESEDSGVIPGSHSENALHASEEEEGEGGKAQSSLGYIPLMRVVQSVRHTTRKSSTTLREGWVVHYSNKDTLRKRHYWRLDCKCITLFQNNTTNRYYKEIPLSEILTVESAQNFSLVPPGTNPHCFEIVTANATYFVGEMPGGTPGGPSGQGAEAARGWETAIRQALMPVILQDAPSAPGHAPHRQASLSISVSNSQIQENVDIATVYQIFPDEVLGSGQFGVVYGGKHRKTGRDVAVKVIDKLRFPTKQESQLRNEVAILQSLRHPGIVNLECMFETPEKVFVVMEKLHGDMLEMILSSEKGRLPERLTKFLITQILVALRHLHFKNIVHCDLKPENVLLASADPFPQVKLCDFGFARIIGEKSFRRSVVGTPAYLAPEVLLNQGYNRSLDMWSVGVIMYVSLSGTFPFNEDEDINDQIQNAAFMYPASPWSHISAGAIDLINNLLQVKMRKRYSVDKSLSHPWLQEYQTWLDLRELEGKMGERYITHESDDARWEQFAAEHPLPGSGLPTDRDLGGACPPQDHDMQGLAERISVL

PKD3 = molecular target: T4, PKD3 (Homo sapiens, UniProt O94806); test: in vitro radiometric kinase assay, 10-point curve
T4 construct: gene PRKD3; recombinant human PKD3
T4 sequence (O94806 1-890): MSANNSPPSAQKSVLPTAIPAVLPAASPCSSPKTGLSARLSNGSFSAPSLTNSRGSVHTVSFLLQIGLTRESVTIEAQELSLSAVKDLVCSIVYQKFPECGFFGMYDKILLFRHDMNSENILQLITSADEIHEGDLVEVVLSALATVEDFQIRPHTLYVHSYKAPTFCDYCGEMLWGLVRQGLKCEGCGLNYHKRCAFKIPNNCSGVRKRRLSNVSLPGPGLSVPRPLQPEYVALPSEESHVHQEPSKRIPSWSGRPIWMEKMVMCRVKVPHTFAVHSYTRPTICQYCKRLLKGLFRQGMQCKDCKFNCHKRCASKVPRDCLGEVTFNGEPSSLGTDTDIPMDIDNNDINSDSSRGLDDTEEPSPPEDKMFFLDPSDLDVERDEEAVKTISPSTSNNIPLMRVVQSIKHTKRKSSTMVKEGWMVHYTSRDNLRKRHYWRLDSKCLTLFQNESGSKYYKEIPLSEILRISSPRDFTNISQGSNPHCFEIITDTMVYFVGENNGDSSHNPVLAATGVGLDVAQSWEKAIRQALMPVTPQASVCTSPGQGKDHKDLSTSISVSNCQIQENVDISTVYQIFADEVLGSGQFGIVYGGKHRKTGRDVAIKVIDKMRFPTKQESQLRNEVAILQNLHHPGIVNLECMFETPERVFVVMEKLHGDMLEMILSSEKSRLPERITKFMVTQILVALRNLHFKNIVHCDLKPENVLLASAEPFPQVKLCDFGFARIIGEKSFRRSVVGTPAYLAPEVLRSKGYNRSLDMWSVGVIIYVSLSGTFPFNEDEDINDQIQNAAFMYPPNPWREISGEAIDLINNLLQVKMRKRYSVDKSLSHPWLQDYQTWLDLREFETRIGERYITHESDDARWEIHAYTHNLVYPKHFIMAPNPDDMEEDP

protein kinase D1 (PKD1) = molecular target: T5, protein kinase D1 (PKD1) (Homo sapiens, UniProt Q15139); test: in vitro radiometric kinase assay, 10-point curve; Lineweaver-Burk
T5 construct: gene PRKD1; GST-tagged recombinant human PKD1
T5 sequence (Q15139 1-912): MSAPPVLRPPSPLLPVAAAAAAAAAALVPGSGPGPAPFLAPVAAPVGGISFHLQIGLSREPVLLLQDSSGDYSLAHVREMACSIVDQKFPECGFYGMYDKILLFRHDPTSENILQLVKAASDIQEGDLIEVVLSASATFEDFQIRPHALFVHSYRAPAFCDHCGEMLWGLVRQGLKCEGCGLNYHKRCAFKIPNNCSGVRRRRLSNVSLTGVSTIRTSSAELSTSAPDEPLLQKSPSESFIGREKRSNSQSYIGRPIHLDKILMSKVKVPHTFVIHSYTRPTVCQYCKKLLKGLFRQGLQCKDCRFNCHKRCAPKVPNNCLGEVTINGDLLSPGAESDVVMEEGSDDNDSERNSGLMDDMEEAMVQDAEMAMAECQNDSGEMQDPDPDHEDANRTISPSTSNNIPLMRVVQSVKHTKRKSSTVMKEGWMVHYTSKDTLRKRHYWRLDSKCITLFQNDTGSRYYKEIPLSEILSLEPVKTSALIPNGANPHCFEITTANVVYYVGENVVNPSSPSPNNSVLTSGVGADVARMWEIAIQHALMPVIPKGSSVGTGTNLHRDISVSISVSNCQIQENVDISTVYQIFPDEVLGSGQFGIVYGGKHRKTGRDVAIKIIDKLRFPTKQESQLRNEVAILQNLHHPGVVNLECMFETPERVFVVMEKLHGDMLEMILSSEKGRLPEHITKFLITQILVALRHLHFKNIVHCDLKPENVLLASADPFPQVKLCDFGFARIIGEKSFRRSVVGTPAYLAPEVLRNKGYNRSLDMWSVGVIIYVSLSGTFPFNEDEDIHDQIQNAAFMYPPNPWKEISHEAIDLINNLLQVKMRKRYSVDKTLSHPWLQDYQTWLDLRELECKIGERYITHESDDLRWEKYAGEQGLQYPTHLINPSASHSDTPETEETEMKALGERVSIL

T1 sequence (Q05655 whole entry): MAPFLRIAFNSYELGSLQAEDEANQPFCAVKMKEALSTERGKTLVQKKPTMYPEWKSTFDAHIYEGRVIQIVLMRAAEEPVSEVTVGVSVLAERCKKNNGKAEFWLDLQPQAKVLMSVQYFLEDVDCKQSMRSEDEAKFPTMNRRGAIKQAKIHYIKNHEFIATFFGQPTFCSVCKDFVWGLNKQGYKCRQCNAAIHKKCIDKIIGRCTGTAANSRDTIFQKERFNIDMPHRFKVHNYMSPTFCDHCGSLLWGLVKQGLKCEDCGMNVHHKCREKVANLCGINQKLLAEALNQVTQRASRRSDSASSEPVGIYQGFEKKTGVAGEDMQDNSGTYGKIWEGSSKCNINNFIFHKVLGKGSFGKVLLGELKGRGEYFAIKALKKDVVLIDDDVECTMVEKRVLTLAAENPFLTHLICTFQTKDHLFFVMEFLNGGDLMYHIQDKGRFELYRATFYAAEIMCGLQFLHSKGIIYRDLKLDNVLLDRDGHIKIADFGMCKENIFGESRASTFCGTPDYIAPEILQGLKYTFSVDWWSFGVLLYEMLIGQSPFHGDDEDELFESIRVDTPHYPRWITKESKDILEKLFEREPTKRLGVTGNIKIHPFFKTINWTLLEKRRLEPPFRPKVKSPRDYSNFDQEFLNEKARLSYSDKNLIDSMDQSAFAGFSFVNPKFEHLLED

Row | SMILES | in vitro radiometric PKC kinase assay (PKCδ) | in vitro radiometric PKC kinase assay (PKCα) | IC50 (PKD2) [nM] | IC50 (PKD3) [nM] | IC50 (protein kinase D1 (PKD1)) [nM]
1 | CN(C)CCCn1cc(C2=C(c3c[nH]c4ccccc34)C(=O)NC2=O)c2ccccc21 [GF109203X] | GF109203X was tested as a positive control and it potently and concentration-dependently inhibited PKCα and PKCδ | GF109203X was tested as a positive control and it potently and concentration-dependently inhibited PKCα and PKCδ | – | – | –
2 | Fc1ccc(Cl)cc1-c1nc(Nc2ccncc2)c2nccnc2n1 [SD-208] | – | – | 93.5 | 105 | 107
